{"source": "patent US7985432B2", "about": "“Insect repellent” (Bioniche Life Sciences, Inc., priority 2003, dated 2011)", "origin": "cited, not measured here", "test_system": "Mosquitoes", "data": [{"smiles": "CC1=COC(=O)C2C(C)CCC12", "note": "(stereo not shown) [Nepetalactone]", "values": [{"measurement": "Effectiveness at repelling mosquitoes relative to DEET", "value": "about ten times more effective at repelling mosquitoes than DEET"}]}]}
